pKi: −log10 of the molar value.

One assay deals with caspase-11. In words: Caspase enzyme assay (residual caspase-11 activity). In kind it is biochemical, mouse.
In a further assay the target is MT1-MMP. Further details: method as in 2 sources, ref [19] = [19]; PMID 28394608; doi:10.1021/acs.jmedchem.7b00018; 19. Bhowmick M. Tokmina-Roszyk D. Onwuha-Ekpete L. Harmon K. Robichaud T. Fuerst R. Stawikowska R. Steffensen B. Roush W.R. Wong H. Second Generation Triple-Helical Peptide Transition State Analog Mat ||| ref [15],[19] = [15]; PMID 17672455; doi:10.1021/ja0715849; 15. Lauer-Fields J.L. Brew K. Whitehead J.K. Li S. Hammer R.P. Fields G.B. Triple-helical transition-state analogs: A new class of selective matrix metalloproteinase inhibitors J. Am. Chem. Soc. 2007 || [19]; PMID 28394608; doi:10.1021/acs.jmedchem.7b00018; 19. Bhowmick M. Tokmina-Roszyk D. Onwuha-Ekpete L. Harmon K. Robichaud T. Fuerst R. Stawikowska R. Steffensen B. Roush W.R. Wong H. Second Generation Triple-Helical Peptide Transition State Analog Mat. The note with it: no or weak inhibition of MT1-MMP; ref [15],[19]; cited from earlier work.

The next assay addresses T1, MMP-8 (Homo sapiens, UniProt P22894).
T1 construct: purchased R&D Systems
Further details: method as in 2 sources, ref [19] = [19]; PMID 28394608; doi:10.1021/acs.jmedchem.7b00018; 19. Bhowmick M. Tokmina-Roszyk D. Onwuha-Ekpete L. Harmon K. Robichaud T. Fuerst R. Stawikowska R. Steffensen B. Roush W.R. Wong H. Second Generation Triple-Helical Peptide Transition State Analog Mat ||| ref [15],[19] = [15]; PMID 17672455; doi:10.1021/ja0715849; 15. Lauer-Fields J.L. Brew K. Whitehead J.K. Li S. Hammer R.P. Fields G.B. Triple-helical transition-state analogs: A new class of selective matrix metalloproteinase inhibitors J. Am. Chem. Soc. 2007 || [19]; PMID 28394608; doi:10.1021/acs.jmedchem.7b00018; 19. Bhowmick M. Tokmina-Roszyk D. Onwuha-Ekpete L. Harmon K. Robichaud T. Fuerst R. Stawikowska R. Steffensen B. Roush W.R. Wong H. Second Generation Triple-Helical Peptide Transition State Analog Mat. The note with it: no or weak inhibition of MMP-8; ref [15],[19]; cited from earlier work.

The next assay concerns the target MMP-1. Further details: method as in 2 sources, ref [19] = [19]; PMID 28394608; doi:10.1021/acs.jmedchem.7b00018; 19. Bhowmick M. Tokmina-Roszyk D. Onwuha-Ekpete L. Harmon K. Robichaud T. Fuerst R. Stawikowska R. Steffensen B. Roush W.R. Wong H. Second Generation Triple-Helical Peptide Transition State Analog Mat ||| ref [15],[19] = [15]; PMID 17672455; doi:10.1021/ja0715849; 15. Lauer-Fields J.L. Brew K. Whitehead J.K. Li S. Hammer R.P. Fields G.B. Triple-helical transition-state analogs: A new class of selective matrix metalloproteinase inhibitors J. Am. Chem. Soc. 2007 || [19]; PMID 28394608; doi:10.1021/acs.jmedchem.7b00018; 19. Bhowmick M. Tokmina-Roszyk D. Onwuha-Ekpete L. Harmon K. Robichaud T. Fuerst R. Stawikowska R. Steffensen B. Roush W.R. Wong H. Second Generation Triple-Helical Peptide Transition State Analog Mat. Conditions: no or weak inhibition of MMP-1; ref [15],[19]; cited from earlier work.

In a further assay the target is MMP-3. More on the design: method as in 2 sources, ref [19] = [19]; PMID 28394608; doi:10.1021/acs.jmedchem.7b00018; 19. Bhowmick M. Tokmina-Roszyk D. Onwuha-Ekpete L. Harmon K. Robichaud T. Fuerst R. Stawikowska R. Steffensen B. Roush W.R. Wong H. Second Generation Triple-Helical Peptide Transition State Analog Mat ||| ref [15],[19] = [15]; PMID 17672455; doi:10.1021/ja0715849; 15. Lauer-Fields J.L. Brew K. Whitehead J.K. Li S. Hammer R.P. Fields G.B. Triple-helical transition-state analogs: A new class of selective matrix metalloproteinase inhibitors J. Am. Chem. Soc. 2007 || [19]; PMID 28394608; doi:10.1021/acs.jmedchem.7b00018; 19. Bhowmick M. Tokmina-Roszyk D. Onwuha-Ekpete L. Harmon K. Robichaud T. Fuerst R. Stawikowska R. Steffensen B. Roush W.R. Wong H. Second Generation Triple-Helical Peptide Transition State Analog Mat. Conditions: no or weak inhibition of MMP-3; ref [15],[19]; cited from earlier work.

The target of another assay is T2, MMP-2 (Homo sapiens, UniProt P08253).
T2 construct: Recombinant MMP-2 and MMP-9 catalytic domain were purchased from Sigma-Aldrich; purchased Sigma-Aldrich
T2 sequence (P08253 110-660): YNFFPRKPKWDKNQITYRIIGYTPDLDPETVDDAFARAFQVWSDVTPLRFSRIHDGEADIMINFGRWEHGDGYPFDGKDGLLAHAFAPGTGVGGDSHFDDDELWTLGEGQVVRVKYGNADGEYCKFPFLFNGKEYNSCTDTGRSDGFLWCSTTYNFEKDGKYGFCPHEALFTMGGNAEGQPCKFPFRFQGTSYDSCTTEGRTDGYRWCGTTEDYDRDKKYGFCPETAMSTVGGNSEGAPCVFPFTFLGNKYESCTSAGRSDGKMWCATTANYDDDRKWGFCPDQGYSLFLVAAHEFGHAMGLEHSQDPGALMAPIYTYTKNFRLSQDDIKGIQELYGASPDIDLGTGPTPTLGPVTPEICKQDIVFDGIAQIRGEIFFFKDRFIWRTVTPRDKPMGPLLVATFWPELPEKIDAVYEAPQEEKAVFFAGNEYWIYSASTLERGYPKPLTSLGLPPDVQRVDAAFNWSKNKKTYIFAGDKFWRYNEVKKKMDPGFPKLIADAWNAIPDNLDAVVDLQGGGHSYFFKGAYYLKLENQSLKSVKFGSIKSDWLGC
The note with it: 37 °C; ref [15],[19]; cited from earlier work.

For the next assay, the target named is T3, MMP-9 (Homo sapiens, UniProt P14780).
T3 construct: Recombinant MMP-2 and MMP-9 catalytic domain were purchased from Sigma-Aldrich; purchased Sigma-Aldrich
Conditions: 37 °C; ref [15],[19]; cited from earlier work.

Another assay concerns the target MMP-13 (Homo sapiens, UniProt P45452). The note with it: no or weak inhibition of MMP-13; ref [15],[19]; cited from earlier work.
For assay [1] the following is noted: ref [19]; cited from earlier work.

T3 sequence (P14780 107-444 limits assumed, species assumed): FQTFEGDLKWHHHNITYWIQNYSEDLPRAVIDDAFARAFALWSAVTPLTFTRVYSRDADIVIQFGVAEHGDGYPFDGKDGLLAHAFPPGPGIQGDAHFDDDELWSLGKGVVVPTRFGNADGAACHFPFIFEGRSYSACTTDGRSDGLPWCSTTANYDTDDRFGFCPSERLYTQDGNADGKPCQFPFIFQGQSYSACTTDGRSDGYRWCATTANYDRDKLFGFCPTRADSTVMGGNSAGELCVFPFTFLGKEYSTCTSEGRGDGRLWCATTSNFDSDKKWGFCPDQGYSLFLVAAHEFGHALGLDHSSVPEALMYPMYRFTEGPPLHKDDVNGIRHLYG
T1 sequence (P22894 101-467): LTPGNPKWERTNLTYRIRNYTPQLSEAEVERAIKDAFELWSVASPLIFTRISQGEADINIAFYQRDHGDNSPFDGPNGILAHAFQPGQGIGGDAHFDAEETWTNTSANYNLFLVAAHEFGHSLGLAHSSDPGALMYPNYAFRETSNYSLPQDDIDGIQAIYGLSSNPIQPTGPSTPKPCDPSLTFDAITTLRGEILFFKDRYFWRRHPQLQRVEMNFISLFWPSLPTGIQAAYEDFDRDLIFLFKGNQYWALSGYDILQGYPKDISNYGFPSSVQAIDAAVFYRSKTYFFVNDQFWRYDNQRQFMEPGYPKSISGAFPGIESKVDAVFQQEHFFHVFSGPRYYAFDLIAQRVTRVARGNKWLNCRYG

The term pKi denotes −log10 of the Ki, conventionally taken in molar units. On to “(Gly-Pro-Hyp)4-Gly-mep-Flp-Gly-Pro-Pro-GlyΨ{PO2H-CH2}Val-Val-Gly-Glu-Gln-Gly-Glu-Gln-Gly-Pro-Pro-Gly-mep-Flp-(Gly-Pro-Hyp)4-NH2”, for which the “inhibition of caspase-11 activity at early time points” value in the assay with caspase-11 (5 μM inhibitor, 2 h inhibitor pre-incubation (Figure 2), stated to be similar to no pre-incubation) is on record as “no inhibition to occur at early time points”; with caspase-11 (no inhibitor pre-incubation time, data not shown), “no inhibition to occur at early time points”. Moreover, the “change in extent of caspase-11 inhibition over time” value in the assay with caspase-11 (5 μM inhibitor, 2 h pre-incubation, 1 h monitoring, data not shown) is listed as “did not increase after 1 h”. In addition, the pKi was 4.30 to 5.00 at MT1-MMP; 4.30 to 5.00 with MMP-8; 4.30 to 5.00 on MMP-1; 4.30 to 5.00 at MMP-3; 8.65 with MMP-2; 9.01 with MMP-9. For the same substance, the pKi with MMP-13 was 4.30 to 5.00. In addition, the “efficacy in animal model of multiple sclerosis” value in assay [1] was “efficacious in an animal model of multiple sclerosis”.
Regarding “Ac-LEVD-aldehyde (SMILES CC(=O)N[C@@H](CC(C)C)C(=O)N[C@@H](CCC(=O)O)C(=O)N[C@H](C(=O)N[C@H](C=O)CC(=O)O)C(C)C) [reference compound]”, the “inhibition of caspase-11 activity” value in the assay with caspase-11 (5 μM inhibitor incubated with enzyme 2 h prior to substrate, 3 U/μL (1.08 μM) caspase-11, 250 μM acetyl-Trp-Glu-His-Asp-pNA, pH 6.5, 37 °C, absorbance 405 nm, result in words (up to 15 min)) was “completely inhibit enzymatic activity”.
